Experimental data taken from patent US20260272881A1, “QTX125 DRUG FORMULATIONS” (Quimatryx, S.L., priority 2022, published 2026).
Values after ≈ are worked out from the molar mass of the structure shown.

How the values were obtained:
rats, mice and dogs = conditions: range of animal species including rats; cited from earlier work
mice = conditions: cited from earlier work
[1] = acute toxicity studies; cited from earlier work
[2] = Genotoxicity (clastogenicity, aneugenicity)
[3] = Pharmacokinetic properties (half-lives, distribution volumes); format: in vivo; conditions: compared with other histone deacetylase inhibitors
[4] = Solubility in water and stability in solution of QTX125 (background); format: physicochemical
mantle cell lymphoma = mantle cell lymphoma xenograft murine model; cited from earlier work
[5] = hydroxamic acids such as QTX125; cited from earlier work
lung cancer = lung cancer xenograft murine model; cited from earlier work
[6] = Solubility trials of QTX125 formulations (mixed 24 hours at room temperature); format: physicochemical; conditions: aqueous HPβCD solution (HPβCD as only excipient), aqueous with cosolvent or surfactant or cyclodextrin, thermodynamic from solid; with HPβCD alone (Example 1.3)
Experimental: The parameters required for the HPLC method used to determine the concentration of QTX125 in solution is set out below.
HPLC determination of the percentage of QTX125 in the solutions below was determined using the protocols set out above.
Assay (% LC) was determined by comparing the area of the peak for QTX125 to a calibration curve determined by running samples of known concentration of QTX125 (standards) on the HPLC.

HDAC 6 = target: T1, HDAC 6 (Homo sapiens, UniProt Q9UBN7); conditions: cited from earlier work
T1 sequence (Q9UBN7 1-1215): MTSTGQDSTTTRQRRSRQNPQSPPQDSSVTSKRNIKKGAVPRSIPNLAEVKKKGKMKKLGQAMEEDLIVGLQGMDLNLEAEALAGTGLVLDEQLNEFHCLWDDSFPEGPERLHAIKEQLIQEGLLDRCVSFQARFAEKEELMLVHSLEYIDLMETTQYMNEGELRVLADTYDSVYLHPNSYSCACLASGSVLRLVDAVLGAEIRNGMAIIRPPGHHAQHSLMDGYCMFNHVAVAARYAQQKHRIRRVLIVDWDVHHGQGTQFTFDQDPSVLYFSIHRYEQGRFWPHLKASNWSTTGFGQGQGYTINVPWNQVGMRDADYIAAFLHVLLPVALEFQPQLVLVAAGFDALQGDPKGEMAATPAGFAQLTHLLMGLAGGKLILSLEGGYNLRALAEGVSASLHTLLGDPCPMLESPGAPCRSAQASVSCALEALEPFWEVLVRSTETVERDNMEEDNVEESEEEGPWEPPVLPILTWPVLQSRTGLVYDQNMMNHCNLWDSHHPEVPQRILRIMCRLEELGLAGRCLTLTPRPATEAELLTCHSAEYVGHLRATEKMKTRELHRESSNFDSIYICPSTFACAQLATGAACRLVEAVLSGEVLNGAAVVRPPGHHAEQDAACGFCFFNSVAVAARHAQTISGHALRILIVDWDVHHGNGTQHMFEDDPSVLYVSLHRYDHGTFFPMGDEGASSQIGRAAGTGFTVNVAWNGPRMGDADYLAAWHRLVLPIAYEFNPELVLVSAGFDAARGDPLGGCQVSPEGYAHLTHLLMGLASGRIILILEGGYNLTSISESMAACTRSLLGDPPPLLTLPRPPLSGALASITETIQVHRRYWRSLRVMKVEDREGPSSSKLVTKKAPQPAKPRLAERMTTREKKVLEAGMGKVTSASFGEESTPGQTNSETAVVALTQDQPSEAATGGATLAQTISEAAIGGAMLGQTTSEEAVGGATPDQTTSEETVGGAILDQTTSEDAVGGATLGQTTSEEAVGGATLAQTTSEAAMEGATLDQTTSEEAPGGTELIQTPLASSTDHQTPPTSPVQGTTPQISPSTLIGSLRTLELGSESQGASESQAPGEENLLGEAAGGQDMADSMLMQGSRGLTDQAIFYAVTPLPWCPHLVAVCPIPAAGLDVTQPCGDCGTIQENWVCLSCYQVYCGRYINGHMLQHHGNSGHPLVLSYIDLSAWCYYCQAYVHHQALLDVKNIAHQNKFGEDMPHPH

pancreatic cancer = pancreatic cancer xenograft murine model; cited from earlier work
[7] = test system: multiple sclerosis mice models; conditions: two different multiple sclerosis mice models; cited from earlier work

2-hydroxypropyl-β-cyclodextrin
tolerance (rats, mice and dogs): well tolerated

sulfobutyl ether β cyclodextrin [SBβCD]
renal histopathology (mice): no negative renal histopathology
acute toxicity [1]: no observable effects

O=C(NO)c1ccc(CNC(=O)c2[nH]c(-c3ccc(O)cc3)cc2-c2ccoc2)cc1 [QTX125, 3-(3-Furyl)-N-{4-[(hydroxyamino)carbonyl]benzyl}-5-(4-hydroxyphenyl)-1 Hpyrrole-2-carboxamide]
genotoxicity, in particular clastogenicity or aneugenicity [2]: no evidence of genotoxicity
pharmacokinetic properties (half-lives and distribution volumes) [3]: higher half-lives and distribution volumes
stability in solution [4]: physical and chemical instability in solution
antitumoral efficacy (mantle cell lymphoma): high antitumoral efficacy
solubility in water [5]: very low solubility in water
antitumoral efficacy (lung cancer): high antitumoral efficacy
solubility at 24 h [6]: 140 µg/mL (≈ 335 µM)
HDAC 6 inhibition (HDAC 6): highly selective and highly potent
antitumoral efficacy (pancreatic cancer): high antitumoral efficacy
efficacy [7]: high efficacy
